Assay results as given in PubChem BioAssay AID1963837 (Molecular Pharmacology Branch, DTP, NCI, 2024).

System: 843126-344-R-J1-PDC complex spheroid viability
Experiment: Anticancer human tumor 843126-344-R-J1-PDC patient-derived melanoma cell line growth inhibition [POLQ]
Conditions: for IC50: curve of first compound; for viability, T/C: stronger effect = lower value
Outline: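 Patient-derived tumour cells were co-cultured with HUVEC and mesenchymal stem cells as multicellular spheroids at 37 °C. They were treated with POLQ inhibitors (novobiocin, ART-558, RP6685) alone or combined with other agents. Top concentrations were at or near clinical Cmax (otherwise 10 microM; SN-38 at 1 microM), decreasing in half-log steps.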

[1] = second compound 0.0316 µM, first compound 0.0316 µM
[2] = second compound 0.0316 µM, first compound 0.1 µM
[3] = second compound 0.0316 µM, first compound 0.316 µM
[4] = second compound 0.0316 µM, first compound 1 µM
[5] = second compound 0.0316 µM, first compound 3.16 µM
[6] = second compound 0.0316 µM, first compound 10 µM
[7] = second compound 0.1 µM, first compound 0.0316 µM
[8] = second compound 0.1 µM, first compound 0.1 µM
[9] = second compound 0.1 µM, first compound 0.316 µM
[10] = second compound 0.1 µM, first compound 1 µM
[11] = second compound 0.1 µM, first compound 3.16 µM
[12] = second compound 0.1 µM, first compound 10 µM
[13] = second compound 0.316 µM, first compound 0.0316 µM
[14] = second compound 0.316 µM, first compound 0.1 µM
[15] = second compound 0.316 µM, first compound 0.316 µM
[16] = second compound 0.316 µM, first compound 1 µM
[17] = second compound 0.316 µM, first compound 3.16 µM
[18] = second compound 0.316 µM, first compound 10 µM
[19] = second compound 1 µM, first compound 0.0316 µM
[20] = second compound 1 µM, first compound 0.1 µM
[21] = second compound 1 µM, first compound 0.316 µM
[22] = second compound 1 µM, first compound 1 µM
[23] = second compound 1 µM, first compound 3.16 µM
[24] = second compound 1 µM, first compound 10 µM
[25] = second compound 3.16 µM, first compound 0.0316 µM
[26] = second compound 3.16 µM, first compound 0.1 µM
[27] = second compound 3.16 µM, first compound 0.316 µM
[28] = second compound 3.16 µM, first compound 1 µM
[29] = second compound 3.16 µM, first compound 3.16 µM
[30] = second compound 3.16 µM, first compound 10 µM
[31] = second compound 10 µM, first compound 0.0316 µM
[32] = second compound 10 µM, first compound 0.1 µM
[33] = second compound 10 µM, first compound 0.316 µM
[34] = second compound 10 µM, first compound 1 µM
[35] = second compound 10 µM, first compound 3.16 µM
[36] = second compound 10 µM, first compound 10 µM
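Throughout, for viability, T/C: spheroids exposed to drugs for seven days before readout.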

For COc1ccc([C@@H](O)c2cc(-c3ncnc4cc(N5CCOCC5)ccc34)c(F)cc2Cl)nn1 + COC1C(OC(N)=O)C(O)C(Oc2ccc3c(O)c(NC(=O)c4ccc(O)c(CC=C(C)C)c4)c(=O)oc3c2C)OC1(C)C, the IC50 (second compound 0.0316 µM) was > 10 µM, the IC50 (second compound 0.1 µM) was > 10 µM and the IC50 (second compound 0.316 µM) was 7.08 µM. For the same compound, the IC50 (second compound 1 µM) was > 10 µM, the IC50 (second compound 3.16 µM) was > 10 µM and the IC50 (second compound 10 µM) was 9.31 µM. It also gave a viability, T/C [1] of 116%, a viability, T/C [2] of 82.3% and a viability, T/C [3] of 105%. It also gave a viability, T/C [4] of 84.7%, a viability, T/C [5] of 85.7% and a viability, T/C [6] of 53.4%. It also gave a viability, T/C [7] of 85.8%, a viability, T/C [8] of 85.7% and a viability, T/C [9] of 116%. The viability, T/C [10] was 79.5%, the viability, T/C [11] was 81.6% and the viability, T/C [12] was 54.1%. The viability, T/C [13] was 93.4%, the viability, T/C [14] was 98.2% and the viability, T/C [15] was 92.8%. The viability, T/C [16] was 89%, the viability, T/C [17] was 63% and the viability, T/C [18] was 44.4%. The viability, T/C [19] was 95.8%, the viability, T/C [20] was 80.1% and the viability, T/C [21] was 92.8%. It also gave a viability, T/C [22] of 91%, a viability, T/C [23] of 85.6% and a viability, T/C [24] of 54.9%. For the same compound, the viability, T/C [25] was 87.8%, the viability, T/C [26] was 102% and the viability, T/C [27] was 90.3%. The viability, T/C [28] was 73.8%, the viability, T/C [29] was 85% and the viability, T/C [30] was 49.9%. It also gave a viability, T/C [31] of 87%, a viability, T/C [32] of 76% and a viability, T/C [33] of 109%. The viability, T/C [34] was 76%, the viability, T/C [35] was 69.6% and the viability, T/C [36] was 48.5%.
CNCc1ccc(-c2[nH]c3cc(F)cc4c3c2CCNC4=O)cc1 + Nc1ccc(C#CCN(C(=O)Cc2ncc(C(F)(F)F)cc2C(F)(F)F)c2ccc(F)cc2)nn1 was tested, and the IC50 (second compound 0.0316 µM) was > 10 µM, the IC50 (second compound 0.1 µM) was > 10 µM and the IC50 (second compound 0.316 µM) was > 10 µM. The IC50 (second compound 1 µM) was > 10 µM, the IC50 (second compound 3.16 µM) was > 10 µM and the IC50 (second compound 10 µM) was > 10 µM. The viability, T/C [1] was 104%, the viability, T/C [2] was 92.1% and the viability, T/C [3] was 100%. The viability, T/C [4] was 108%, the viability, T/C [5] was 98.5% and the viability, T/C [6] was 83.4%. For the same compound, the viability, T/C [7] was 96.4%, the viability, T/C [8] was 103% and the viability, T/C [9] was 101%. It also gave a viability, T/C [10] of 95%, a viability, T/C [11] of 94.3% and a viability, T/C [12] of 88.5%. For the same compound, the viability, T/C [13] was 95.8%, the viability, T/C [14] was 105% and the viability, T/C [15] was 97.3%. For the same compound, the viability, T/C [16] was 103%, the viability, T/C [17] was 94.4% and the viability, T/C [18] was 84.3%. For the same compound, the viability, T/C [19] was 103%, the viability, T/C [20] was 103% and the viability, T/C [21] was 95.9%. It also gave a viability, T/C [22] of 117%, a viability, T/C [23] of 102% and a viability, T/C [24] of 86.3%. For the same compound, the viability, T/C [25] was 92.6%, the viability, T/C [26] was 86.3% and the viability, T/C [27] was 95.2%. For the same compound, the viability, T/C [28] was 83.6%, the viability, T/C [29] was 98.2% and the viability, T/C [30] was 90.9%. The viability, T/C [31] was 91.3%, the viability, T/C [32] was 89.1% and the viability, T/C [33] was 91.9%. For the same compound, the viability, T/C [34] was 92.9%, the viability, T/C [35] was 91.5% and the viability, T/C [36] was 85.9%.
COc1cccc2c1C(=O)c1c(O)c3c(c(O)c1C2=O)CC(O)(C(=O)CO)CC3OC1CC(N)C(O)C(C)O1 (stereo unspecified) + Cc1cccc(N(C)C(=O)C2C(O)CCN2c2nc(C)cc(C(F)(F)F)c2C#N)c1 gave an IC50 (second compound 0.0316 µM) of 0.178 µM, an IC50 (second compound 0.1 µM) of 0.245 µM and an IC50 (second compound 0.316 µM) of 0.168 µM. The IC50 (second compound 1 µM) was 0.204 µM, the IC50 (second compound 3.16 µM) was 0.184 µM and the IC50 (second compound 10 µM) was 0.152 µM. The viability, T/C [1] was 92.8%, the viability, T/C [2] was 62.1% and the viability, T/C [3] was 39.9%. It also gave a viability, T/C [4] of 11%, a viability, T/C [5] of 3.5% and a viability, T/C [6] of 3.68%. For the same compound, the viability, T/C [7] was 87.9%, the viability, T/C [8] was 72.7% and the viability, T/C [9] was 45.2%. It also gave a viability, T/C [10] of 9.74%, a viability, T/C [11] of 4.9% and a viability, T/C [12] of 3.68%. For the same compound, the viability, T/C [13] was 92.7%, the viability, T/C [14] was 60.7% and the viability, T/C [15] was 38.6%. For the same compound, the viability, T/C [16] was 10.6%, the viability, T/C [17] was 3.96% and the viability, T/C [18] was 3.01%. The viability, T/C [19] was 90.8%, the viability, T/C [20] was 69.5% and the viability, T/C [21] was 39.7%. The viability, T/C [22] was 7.4%, the viability, T/C [23] was 3.66% and the viability, T/C [24] was 3.67%. For the same compound, the viability, T/C [25] was 74.3%, the viability, T/C [26] was 64% and the viability, T/C [27] was 37.2%. For the same compound, the viability, T/C [28] was 5.9%, the viability, T/C [29] was 3.46% and the viability, T/C [30] was 3.96%. For the same compound, the viability, T/C [31] was 68.8%, the viability, T/C [32] was 63.3% and the viability, T/C [33] was 26.3%. It also gave a viability, T/C [34] of 4.4%, a viability, T/C [35] of 3.99% and a viability, T/C [36] of 3.14%.
